Experimental data: ChEMBL document CHEMBL3352542, “Synthesis, biological evaluation and molecular modeling study of 2-(1,3,4-thiadiazolyl-thio and 4-methyl-thiazolyl-thio)-quinazolin-4-ones as a new class of DHFR inhibitors” (Bioorg Med Chem Lett, 2014)

Assays:
[1] = test system: Escherichia coli; experiment: Antimicrobial activity against Escherichia coli assessed as inhibition zone at 200 ug/disk after 24 hrs by disc-diffusion method; assay type: functional; conditions: read-out: IZ
[2] = test system: HL-60(TB); experiment: Growth inhibition of human HL-60(TB) cells at 10 uM after 48 hrs; assay type: functional; conditions: HL-60, 48 h, read-out: GI
[3] = test system: Candida albicans; experiment: Antimicrobial activity against Candida albicans assessed as inhibition zone at 200 ug/disk after 24 hrs by disc-diffusion method; assay type: functional; conditions: read-out: IZ
[4] = test system: Bacillus subtilis; experiment: Antimicrobial activity against Bacillus subtilis assessed as inhibition zone at 200 ug/disk after 24 hrs by disc-diffusion method; assay type: functional; conditions: read-out: IZ
[5] = test system: Pseudomonas aeruginosa; experiment: Antimicrobial activity against Pseudomonas aeruginosa assessed as inhibition zone at 200 ug/disk after 24 hrs by disc-diffusion method; assay type: functional; conditions: read-out: IZ
[6] = Growth inhibition of human RPMI8226 cells at 10 uM after 48 hrs; assay type: functional; conditions: RPMI-8226, 48 h, read-out: GI
[7] = test system: MCF7; experiment: Growth inhibition of human MCF7 cells at 10 uM after 48 hrs; assay type: functional; conditions: MCF7, 48 h, read-out: GI
[8] = test system: T47D; experiment: Growth inhibition of human T47D cells at 10 uM after 48 hrs; assay type: functional; conditions: read-out: GI
[9] = Growth inhibition of human HOP92 cells at 10 uM after 48 hrs; assay type: functional; conditions: HOP-92, 48 h, read-out: GI
[10] = test system: Staphylococcus aureus; experiment: Antimicrobial activity against Staphylococcus aureus assessed as inhibition zone at 200 ug/disk after 24 hrs by disc-diffusion method; assay type: functional; conditions: read-out: IZ
[11] = molecular target: T1, Dihydrofolate reductase (Bos taurus, UniProt P00376); experiment: Inhibition of bovine liver DHFR
T1 sequence (P00376 whole entry): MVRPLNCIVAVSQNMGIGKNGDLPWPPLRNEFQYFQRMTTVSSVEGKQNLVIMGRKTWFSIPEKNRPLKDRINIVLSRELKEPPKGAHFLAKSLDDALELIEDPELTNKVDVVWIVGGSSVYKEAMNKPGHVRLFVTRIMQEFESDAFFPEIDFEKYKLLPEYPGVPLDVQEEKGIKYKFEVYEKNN

[12] = Growth inhibition of human MOLT4 cells at 10 uM after 48 hrs; assay type: functional; conditions: MOLT-4, 48 h, read-out: GI
[13] = test system: A498; experiment: Growth inhibition of human A498 cells at 10 uM after 48 hrs; assay type: functional; conditions: A498, 48 h, read-out: GI
[14] = Growth inhibition of human SF295 cells at 10 uM after 48 hrs; assay type: functional; conditions: SF-295, 48 h, read-out: GI
[15] = Growth inhibition of human UO31 cells at 10 uM after 48 hrs; assay type: functional; conditions: UO-31, 48 h, read-out: GI
[16] = test system: SR; experiment: Growth inhibition of human SR cells at 10 uM after 48 hrs; assay type: functional; conditions: read-out: GI

| Compound | zone of inhibition at 200 µg/disc [1] | inhibition of growth at 10 µM [2] | zone of inhibition at 200 µg/disc [3] | zone of inhibition at 200 µg/disc [4] | zone of inhibition at 200 µg/disc [5] | inhibition of growth at 10 µM [6] | inhibition of growth at 10 µM [7] | inhibition of growth at 10 µM [8] | inhibition of growth at 10 µM [9] | zone of inhibition at 200 µg/disc [10] | IC50 [11] | inhibition of growth at 10 µM [12] | inhibition of growth at 10 µM [13] | inhibition of growth at 10 µM [14] | inhibition of growth at 10 µM [15] | inhibition of growth at 10 µM [16] |
| --- | --- | --- | --- | --- | --- | --- | --- | --- | --- | --- | --- | --- | --- | --- | --- | --- |
| Nc1nnc(Sc2nc3ccc(Cl)cc3c(=O)n2-c2ccccc2)s1 | 8 mm | 21.5% | 8 mm | 8 mm | 8 mm | 19.1% | 16.4% | 21.4% | 28.6% | 8 mm | 6 µM |  |  |  |  |  |
| COc1cc2nc(Sc3nnc(N)s3)n(Cc3ccccc3)c(=O)c2cc1OC | 8 mm |  | 8 mm | 14 mm | 8 mm |  |  |  | 26.7% | 8 mm | 6 µM | 18.5% | 18.7% | 11.4% | 21.5% | 13.4% |
